The record followed here is paper PMC11091220, “Metabolism-driven in vitro/in vivo disconnect of an oral ERɑ VHL-PROTAC” (Communications Biology, 2024).

In data set [1] the test system is PR expression. Put plainly: ER agonism: PR expression in Ishikawa cells by western blot. Format: cell-based. As to the method:
Fig. 8 Evidence of ER agonism of AZ’6421 and compound 8 in vitro and in vivo. a 100 nM compound or 10 nM estradiol (E2) were incubated with Ishikawa cells for 48 h and lysates measured for PR expression by western blot. b Normalised rat uterine weight shown as % change from respective vehicle control after 4 days dosing. c Representative H&E stained images taken from sections of uterine horn after 4 days of dosing. d Total plasma exposure of AZ’6421 and its metabolite 8 following dosing of 100 mg/kg BID or 30 mg/kg BID AZ’6421. Plasma samples were taken 4 hr after the 4th dose, at the same time as the uterus was weighed and sectioned for H&E staining.
(§1) Cells were seeded into 12-well tissue culture-treated plates at 0.5 x 10^6 cells/well in phenol red-free RPMI containing 5% (v/v) charcoal-stripped FBS (F6765, Sigma) and left to adhere overnight. In experiments to detect agonism or for SILAC experiments, FBS was double stripped using activated charcoal. Cells were treated with compound or 0.1% DMSO vehicle control for the times indicated prior to being lysed in Pierce RIPA buffer (Thermo Scientific), supplemented with protease and phosphatase inhibitors. Expression levels of proteins were determined by standard western blotting techniques (BioRad 4%-12% Bis-Tris gels). Antibodies were diluted in 5% milk-PBS-Tween and protein levels were detected using Pierce WestDura chemiluminescent reagents followed by visualisation and quantification on a Syngene ChemiGenius Imager. Where blots were quantified, protein levels were normalised to beta-actin or vinculin control and expressed as % of vehicle control.

For data set [2], the system named is uterus. Briefly: Immature female rat model, uterine weight and histology. Format: in vivo. The text has this: Some endocrine therapies, such as tamoxifen, have been reported to display weak agonistic activity in the endometrium due to altered cofactor recruitment and subsequent activation of gene transcription. We therefore sought to test whether AZ’6421 was a complete antagonist or could act as a partial agonist, in both in vitro and in vivo models. […] Plasma samples were taken 4 hr after the 4th dose, at the same time as the uterus was weighed and sectioned for H&E staining. To further explore whether AZ’6421 may be acting as an agonist in vivo, morphological changes of the uterine were examined: uterine horns were formalin-fixed paraffin-embedded, stained with haematoxylin and eosin and then transverse sections of uterus examined.

Data set [3] deals with T1, ERα (Homo sapiens, UniProt P03372).
T1 construct: endogenous in cells; host or cells: MCF7 (also MCF7 engineered to express Cas9)
T1 sequence (P03372 1-595): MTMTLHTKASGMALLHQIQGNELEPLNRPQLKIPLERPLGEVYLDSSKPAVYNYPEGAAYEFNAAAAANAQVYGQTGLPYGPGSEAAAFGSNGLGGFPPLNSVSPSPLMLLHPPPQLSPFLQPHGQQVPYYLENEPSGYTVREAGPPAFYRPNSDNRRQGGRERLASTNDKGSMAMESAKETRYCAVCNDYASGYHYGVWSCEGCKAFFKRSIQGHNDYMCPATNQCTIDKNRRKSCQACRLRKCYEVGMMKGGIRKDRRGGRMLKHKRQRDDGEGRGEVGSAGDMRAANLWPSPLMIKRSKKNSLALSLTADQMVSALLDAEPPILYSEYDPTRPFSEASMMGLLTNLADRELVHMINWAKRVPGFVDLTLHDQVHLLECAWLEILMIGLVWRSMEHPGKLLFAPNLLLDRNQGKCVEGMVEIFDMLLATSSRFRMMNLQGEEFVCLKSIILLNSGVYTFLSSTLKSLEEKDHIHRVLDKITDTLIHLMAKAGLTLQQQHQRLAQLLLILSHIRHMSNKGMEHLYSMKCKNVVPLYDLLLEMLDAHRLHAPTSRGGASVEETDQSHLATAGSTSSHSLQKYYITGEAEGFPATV
Briefly: Western blot analysis of ERα in MCF7 cells (dose response, MG132, VHL ligand and cpd 8 competition). Format: cell-based. Conditions: MCF7. As to the method: Fig. 2 AZ’6421 degrades ERα through a PROTAC mechanism of action. a Immunoblots for ERα and vinculin loading control. MCF7 cells were pre-treated with 10 µM MG132 or DMSO control for 1 h before being exposed to DMSO, AZ’6421, or fulvestrant, at the concentrations indicated, for a further 7 h. A representative immunoblot from two biological replicates is shown. b As in a but cells were pre-treated with 10 µM VHL ligand (Ac-(S,R,S)-AHPC) prior to addition of DMSO, AZ’6421 or fulvestrant. c MCF7 cells expressing BFP-Cas9 were reverse transfected with the crRNA:tracrRNA pool targeting VHL for 72 h prior to treatment with increasing concentrations of AZ’6421 for a further 24 h. Cells were then fixed, stained, and imaged to assess ERα and Cas9 expression. ERα levels in Cas9 positive cells were normalised to unedited cells (0) and ESR1 KO cells (-100). Data points are from three independent experiments, points in bold represent the mean. d Structure of AZ’6421 and the (S)-prolinol epimer, 7. e Concentration-response curves for AZ’6421 and 7. ERα levels in MCF7 cells were assessed using an immunofluorescence endpoint after 24 h exposure to compound. […] Data points are from 5 (AZ'6421) or 2 (Cpd 7) independent experiments with technical duplicates performed for each experiment, bold points represent the mean. All concentration-response curves were plotted using nonlinear regression analysis in GraphPad Prism.
Fig. 6 Assessment of the cause of the in vitro/in vivo disconnect. a CTC174 tumours were disaggregated into single cells, seeded in 6-well plates and dosed with increasing concentrations of AZ’6421 for 24 hours before being lysed. ERα levels were assessed by immunoblotting. ERɑ levels normalised to vinculin and expressed as % DMSO control are shown underneath the immunoblot. b Representative IHC images taken from sections of tumour treated with vehicle control or 100 mg/kg AZ’6421 for 4 days. Sections were stained with an antibody against ERα (Sp1, Ventana). c Schematic of potential sites of metabolism d Free plasma exposure of AZ’6421 and its metabolite 8 following 100 mg/kg dosing of AZ’6421. e Concentration-response curves for AZ’6421 and metabolite 8. ERα levels in MCF7 cells were assessed using an immunofluorescence endpoint after 24 h exposure to compound. […] Points in bold represent the mean. f Effect of metabolite 8 on ERα degradation in CTC174 cells cultured ex vivo. […] MCF7 cells were pre-treated with 10 µM cpd 8 or DMSO control for 1 h before being exposed to DMSO, AZ’6421 or fulvestrant, at the concentrations indicated, for a further 24 h. A representative immunoblot from two biological replicates is shown. TEXT PRINTED IN THE PICTURE: (a) AZ'6421: ERα % of DMSO control: 20.3 (1 nM); ERα % of DMSO control: 12.0 (10 nM); ERα % of DMSO control: 4.1 (30 nM); ERα % of DMSO control: 4.2 (100 nM); ERα % of DMSO control: 3.9 (300 nM); ERα % of DMSO control: 3.6 (1000 nM)
as §1
In general terms: Immunoblotting shows a protein as a band on a membrane.

The target of data set [4] is T1, ERα. Put plainly: SILAC pulse-chase and mass spectrometry, ERα turnover in MCF7 cells. The class given is cell-based. Particulars: 1 µM. As to the method: MCF7 cells were grown for a minimum of 2 passages in SILAC media (Pierce, Thermo Scientific) containing ^13C6^15N4 arginine and ^13C6 lysine. The extent of stable isotope incorporation was determined by mass spectrometry. For the assay, cells were plated at 1.2 x 10^6 cells/well into 6-well TC-treated plates in media containing 5% double charcoal stripped FBS^13,C6^15N4 arginine and ^13C6^15N2 lysine for 24 hours. At time 0, the media containing isotopically heavy arginine and lysine was replaced with media containing unlabelled equivalents plus either AZ’6421, fulvestrant or DMSO control. […] Equal concentrations of timecourse lysates were mixed with an internal standard lysate derived from ^[…] lysine labelled MCF7 cells. ER protein was immunoprecipitated overnight at 4 °C with an ER antibody (Rabbit clone SP1, Thermo Scientific) and immobilised onto a U-bottomed Nunc MaxiSorp plate (Thermo Scientific). Wells were sequentially washed with each of the following; RIPA buffer, PBS and water. Samples were digested by addition of 30 μL well sequencing grade trypsin (Promega) in 50 mM ammonium bicarbonate at 37 °C for a minimum of 16 hours. The resultant peptide samples were acidified and analysed by selected reaction monitoring (SRM) mass spectrometry. Protein half-life was determined using the one-phase exponential decay function in GraphPad PRISM where Y = (Y0 - Plateau)*exp(-K*X) + Plateau.

The target of data set [5] is T1, ERα. Briefly: Hypoxia studies, ERα degradation in MCF7 cells. Format: cell-based. Conditions: 100 nM. The method, then:
MCF7 cells were seeded into 12-well tissue culture-treated plates at 0.5x10^6 cells/well in phenol red-free RPMI media containing 5% (volume/volume [v/v]) charcoal-stripped FBS (F6765, Sigma) and left to adhere overnight. The hypoxia-treated plates were transferred to a Thermo Heracell 150 Tri-gas Incubator set at 2% O2 and allowed to equilibrate to the lower oxygen level overnight. Cells were treated with compound or 0.1% DMSO vehicle control for 48 hours prior to being lysed in Pierce RIPA buffer (Thermo Scientific), supplemented with protease and phosphatase inhibitors. Lysis was carried out immediately after removal from the Tri-gas incubator to prevent the rapid degradation of HIF1α on re-exposure to the higher oxygen levels. Protein expression was determined by standard western blotting procedures as described above.

Where “and” joins values, the source holds several entries; their conditions need not be identical. Equal values may be shown once.

In the case of `C[C@@H]1Cc2c([nH]c3ccccc23)[C@@H](c2c(F)cc(/C=C/C(=O)O)cc2F)N1CC(C)(C)F` [AZD9496, (E)-3-(3,5-Difluoro-4-((1R,3R)-2-(2-fluoro-2-methylpropyl)-3-methyl-2,3,4,9-tetra hydro-1H-pyrido[3,4-b]indol-1-yl)phenyl)acrylic Acid, reference compound], the “PR expression (% vs 10 nM E2)” value in data set [1] (100 nM compound, individual replicates) was 5.08% and 7%. The “PR expression in the Ishikawa endometrial cell line” value in data set [1] (100 nM, 48 h) is given as “induced PR expression”. In addition, in data set [2] (5 mg/kg, individual animals), the “Uterine weight normalised to body weight (% vehicle)” value was 178.44% and 156.17% and 157.43% and 195.46% and 128.27%. In addition, the “uterine epithelium morphology (H&E)” value in data set [2] (immature female rat, 4 days dosing) was “low columnar uterine epithelium”.
As for `C[C@]12CC[C@@H]3c4ccc(O)cc4C[C@@H](CCCCCCCCC[S+]([O-])CCCC(F)(F)C(F)(F)F)[C@H]3[C@@H]1CC[C@@H]2O` (stereo partly shown) [fulvestrant, reference compound], the “effect of MG132 pre-treatment on ERα degradation” value in data set [3] (10 µM MG132 1 h, then compound 7 h) is “attenuated ERα degradation”. For the same compound, the “effect of excess acetylated-(S,R,S)-AHPC pre-treatment on ERα degradation” value in data set [3] (10 µM VHL ligand) is “had no effect”. In addition, the “% heavy (ERα heavy peptide)” value in data set [4] (Time 0, MCF7) was 100.0%; in data set [4] (Time 0.5), 39.1% and 49.6% and 42.4%; in data set [4] (Time 1), 29.7% and 37.1% and 33.5%; in data set [4] (Time 2), 20.8% and 29.3% and 28.1%; in data set [4] (Time 4), 10.9% and 15.5% and 18.5%; in data set [4] (Time 7) it was 5.3% and 6.8% and 7.7%. Besides, the “% heavy (ERα heavy peptide)” value is 4.3% and 6.1% in data set [4] (Time 24); 4.6% and 6.1% and 3.9% in data set [4] (Time 48). In addition, the entries for the “ERa levels (% of vehicle control)” value in data set [5] (Hypoxic) and in data set [5] (Normoxic) were 5.829% and 10.860%, respectively.
